Experimental data published in patent publication US20230096766A1, “AMINO ACID HAVING FUNCTIONAL GROUP CAPABLE OF INTERMOLECULAR HYDROGEN BONDING, PEPTIDE COMPOUND CONTAINING SAME AND METHOD FOR PRODUCTION THEREOF” (Chugai Seiyaku Kabushiki Kaisha, priority 2018, published 2023).
*1 amine or outer side, *2 acyl side, *3 side chain or, on linkers, in order; H or OH if unused. Where a SMILES comes first, the peptide text is derived from it. Bridges are numbered along the chain shown (N, C = ends). [ ]: non-standard residue; d: D form. The star is where a group is joined. ξ: configuration not given here. CH2(1,2,4-oxadiazolon-3-yl) = O=c1[nH]c(C*)no1; NMePhe(3-Cl) = CN[C@@H](Cc1cccc(Cl)c1)C(=O)O; X12 = O=C([C@H](CCCC(O)C(F)(F)F)N[*:1])[*:2]; NMeF = CN[C@@H](Cc1ccccc1)C(=O)O; NMeGABA = CN(CCCC(=O)[*:2])[*:1]; CH2CH(OH)CF3 = OC(C*)C(F)(F)F; NMeL = CN[C@@H](CC(C)C)C(=O)O; NMeV = CN[C@H](C(=O)O)C(C)C; NMeAbu = CC[C@H](NC)C(=O)O; NMeA = CN[C@@H](C)C(=O)O; Piperidide = C1CCN(*)CC1; dNMeA = CN[C@H](C)C(=O)O; CH2CONHMe = CNC(=O)C*; Me2NCH2CH2 = CN(C)CC*; NBuGly = CCCCNCC(=O)O; NPrGly = CCCNCC(=O)O; Propyl(3-OH) = OCCC*; ξV = CC(C)C(N)C(=O)O; ξS = NC(CO)C(=O)O; Sar = CNCC(=O)O; tBu = CC(C)(C)*

Assay: Membrane permeability test of cyclic peptides (Caco-2, modified/improved method of WO 2018/124162)
Conditions: human
[1] = Caco-2, Caco-2 (membrane permeability), Table 6, cyclic peptides containing Ser(1-CF3-EtOH) (C) or Hnl(7-F3-6-OH) (D)
[2] = Caco-2, Caco-2 (cm/sec), membrane permeability of cyclic peptides, Caco-2

CC(C)C[C@H]1C(=O)N[C@@H](COC(C)(C)C)C(=O)N(C)[C@@H](Cc2ccccc2)C(=O)N(C)[C@@H](CC(C)C)C(=O)N[C@H](C(=O)N2CCCCC2)CC(=O)N[C@H](C(C)C)C(=O)N(C)[C@@H](Cc2ccccc2)C(=O)N[C@@H](COCC(O)C(F)(F)F)C(=O)N(C)[C@@H](CC(C)C)C(=O)NC(C(C)C)C(=O)N(C)CC(=O)N1C (stereo partly drawn) [Compound C11] ([dV][NMeF]S(CH2CH(OH)CF3)[NMeL][ξV][Sar][NMeL]S(tBu)[NMeF][NMeL]D-Piperidide; lactam N-11)
Papp [1]: 0.23 ×10⁻⁶ cm/s

CCCCN1CC(=O)N(C)[C@@H](CC(C)C)C(=O)N[C@H](C(=O)N2CCCCC2)CC(=O)N(C)[C@@H](CC)C(=O)N[C@@H](CC(C)C)C(=O)N(C)[C@@H](CC(C)C)C(=O)N(C)[C@@H](Cc2ccccc2)C(=O)NC(COCc2noc(=O)[nH]2)C(=O)N(C)[C@@H](CC(C)C)C(=O)N(C)[C@@H](CC(C)C)C(=O)N[C@@H]([C@@H](C)O)C1=O (stereo partly drawn) [AP47] ([NMeAbu]L[NMeL][NMeF][ξS](CH2(1,2,4-oxadiazolon-3-yl))[NMeL][NMeL]T[NBuGly][NMeL]D-Piperidide; lactam N-11)
Papp [2]: 5.3 ×10⁻⁶ cm/s

CCCN1CC(=O)N(C)[C@@H](CC(C)C)C(=O)N[C@@H](CC(C)C)C(=O)N(C)[C@@H](Cc2ccccc2)C(=O)N(C)[C@@H](CC(C)C)C(=O)N[C@H](C(=O)N2CCCCC2)CC(=O)N[C@H](CC(C)C)C(=O)N(C)[C@@H](Cc2ccccc2)C(=O)N[C@@H](COCC(=O)NC)C(=O)N(C)[C@@H](CC(C)C)C(=O)N[C@@H]([C@@H](C)O)C1=O [Compound I01] ([dL][NMeF]S(CH2CONHMe)[NMeL]T[NPrGly][NMeL]L[NMeF][NMeL]D-Piperidide; lactam N-11)
Papp (Caco-2, Caco-2 (membrane permeability), Table 12, cyclic peptides containing Ser(NMe-Aca) (I) or Gln(Me) (J)): 0.27 ×10⁻⁶ cm/s

CC(C)C[C@@H]1NC(=O)[C@H](Cc2ccccc2)N(C)C(=O)[C@H](Cc2ccccc2)N(C)C(=O)[C@H](COCCN(C)C)NC(=O)[C@H](CC(C)C)N(C)C(=O)CCCN(C)C(=O)C[C@@H](C(=O)N2CCCCC2)NC(=O)[C@H](CC(C)C)N(C)C(=O)[C@H](CC(C)C)N(C)C(=O)[C@H]([C@@H](C)O)NC(=O)[C@H](CC(C)C)N(C)C1=O [pd55] ([NMeGABA][NMeL]S(Me2NCH2CH2)[NMeF][NMeF]L[NMeL]T[NMeL][NMeL]D-Piperidide; lactam N-11)
Papp (Caco-2, Caco-2, Papp, membrane permeability, cyclic peptides comprising Ser(Et-2-NMe2) or Gln(Ms) (Table 27)): 0.1 ×10⁻⁶ cm/s

CC[C@H](C)[C@@H]1NC(=O)[C@H](CC(C)C)N(C)C(=O)[C@H](COC(C)(C)C)NC(=O)[C@H](Cc2ccccc2)N(C)C(=O)[C@H](Cc2ccccc2)N(C)C(=O)[C@H](CCCC(O)C(F)(F)F)NC(=O)[C@H](CC)N(C)C(=O)CCCN(C)C(=O)C[C@@H](C(=O)N2CCCCC2)NC(=O)[C@H](CC(C)C)N(C)C(=O)[C@H](CC(C)C)N(C)C1=O (stereo partly drawn) [Compound D13] ([NMeGABA][NMeAbu][X12][NMeF][NMeF]S(tBu)[NMeL]I[NMeL][NMeL]D-Piperidide; lactam N-11)
Papp [1]: 0.14 ×10⁻⁶ cm/s

CC(C)C[C@@H]1NC(=O)[C@H](Cc2ccccc2)N(C)C(=O)[C@H](CC(C)C)N(C)C(=O)[C@H](COCCCO)NC(=O)[C@H](CC(C)C)N(C)C(=O)C[C@@H](C(=O)N2CCCCC2)NC(=O)[C@H](CC(C)C)N(C)C(=O)CN(C)C(=O)[C@H]([C@@H](C)O)NC(=O)[C@H](CC(C)C)N(C)C(=O)[C@H](Cc2cccc(Cl)c2)N(C)C1=O [AP97] ([NMeL]S(Propyl(3-OH))[NMeL][NMeF]L[NMePhe(3-Cl)][NMeL]T[Sar][NMeL]D-Piperidide; lactam N-11)
Papp [2]: 0.21 ×10⁻⁶ cm/s

CC[C@H](C)[C@@H]1NC(=O)[C@H](CC(C)C)N(C)C(=O)CCCN(C)C(=O)C[C@@H](C(=O)N2CCCCC2)NC(=O)[C@H](CC(C)C)N(C)C(=O)[C@H](CC(C)C)N(C)C(=O)[C@H]([C@@H](C)O)NC(=O)[C@H](CC(C)C)N(C)C(=O)C(COCc2noc(=O)[nH]2)NC(=O)[C@H](CC(C)C)N(C)C(=O)[C@H](Cc2cccc(Cl)c2)N(C)C1=O (stereo partly drawn) [AP46] ([NMeGABA][NMeL]I[NMePhe(3-Cl)][NMeL][ξS](CH2(1,2,4-oxadiazolon-3-yl))[NMeL]T[NMeL][NMeL]D-Piperidide; lactam N-11)
Papp [2]: 0.22 ×10⁻⁶ cm/s

CC[C@H](C)[C@@H]1NC(=O)[C@@H](C)N(C)C(=O)C[C@@H](C(=O)N(C)[C@@H](Cc2ccccc2)C(=O)N[C@@H](C)C(=O)N2CCCCC2)NC(=O)[C@H](Cc2ccccc2)N(C)C(=O)CN(C)C(=O)[C@H]([C@@H](C)O)NC(=O)[C@H](C)N(C)C(=O)[C@H](C(C)C)N(C)C(=O)[C@H](Cc2ccccc2)NC(=O)[C@H](CC(C)C)N(C)C(=O)[C@H](CC(C)C)N(C)C1=O [pd222] ([dNMeA]I[NMeL][NMeL]F[NMeV][NMeA]T[Sar][NMeF]D[NMeF]A-Piperidide; lactam N-11)
Papp (Caco-2, Caco-2 (cm/sec), Table 36, Papp, sequences having Papp ≥ 1.0 × 10^−6 at ARC = 3): 1.1 ×10⁻⁶ cm/s
